# Results as given in patent US20090270400A1 (priority 2004, published 2009).
# Where two headings read alike, the source gives them in different places.
# Test system: carrageenin-induced hyperalgesia on a rat's paw
# Conditions: in vivo
Compound,dose starting from which the pain threshold following a mechanical stimulus applied to the rats' paws is significantly reduced (ip) [mg/kg],dose starting from which the pain threshold following a mechanical stimulus applied to the rats' paws is significantly reduced (iv) [mg/kg]
CN1CC[C@]23c4c5ccc(O)c4O[C@H]2[C@@H](O)C=C[C@H]3[C@H]1C5 [morphine],≥ 1,
"N[C@@H](CSSC[C@H](N)C(=O)N1CCn2cc(-c3ccccc3)nc2[C@@H]1CC1CCCCC1)C(=O)N1CCn2cc(-c3ccccc3)nc2[C@@H]1CC1CCCCC1 [compound 1, (1R)-1-[({(2R)-2-amino-3-[(8S)-8-(cyclohexylmethyl)-2-phenyl-5,6-dihydroimidazo [1,2-α]pyrazin-7(8H)-yl]-3-oxopropyl}dithio)methyl]-2-[(8S)-8-(cyclohexylmethyl)-2-phenyl-5,6-dihydroimidazo [1,2-α]pyrazin-7(8H)-yl]-2-oxoethylamine]",,≥ 1
